The record followed here is article PMC7613998, “Development of selective inhibitors of phosphatidylinositol 3-kinase C2α” (Nature Chemical Biology, 2022).

SMILES strings stand for the structures.

The experiment has as its target T1, PI3KC2α (Homo sapiens, UniProt O00443).
T1 construct: gene PIK3C2A; human PI3KC2α^ΔN (amino acids 376–1686)
The experiment can be described thus: ADP-Glo lipid kinase assay with PI as substrate. It counts as biochemical.

T1 sequence (O00443 376-1686): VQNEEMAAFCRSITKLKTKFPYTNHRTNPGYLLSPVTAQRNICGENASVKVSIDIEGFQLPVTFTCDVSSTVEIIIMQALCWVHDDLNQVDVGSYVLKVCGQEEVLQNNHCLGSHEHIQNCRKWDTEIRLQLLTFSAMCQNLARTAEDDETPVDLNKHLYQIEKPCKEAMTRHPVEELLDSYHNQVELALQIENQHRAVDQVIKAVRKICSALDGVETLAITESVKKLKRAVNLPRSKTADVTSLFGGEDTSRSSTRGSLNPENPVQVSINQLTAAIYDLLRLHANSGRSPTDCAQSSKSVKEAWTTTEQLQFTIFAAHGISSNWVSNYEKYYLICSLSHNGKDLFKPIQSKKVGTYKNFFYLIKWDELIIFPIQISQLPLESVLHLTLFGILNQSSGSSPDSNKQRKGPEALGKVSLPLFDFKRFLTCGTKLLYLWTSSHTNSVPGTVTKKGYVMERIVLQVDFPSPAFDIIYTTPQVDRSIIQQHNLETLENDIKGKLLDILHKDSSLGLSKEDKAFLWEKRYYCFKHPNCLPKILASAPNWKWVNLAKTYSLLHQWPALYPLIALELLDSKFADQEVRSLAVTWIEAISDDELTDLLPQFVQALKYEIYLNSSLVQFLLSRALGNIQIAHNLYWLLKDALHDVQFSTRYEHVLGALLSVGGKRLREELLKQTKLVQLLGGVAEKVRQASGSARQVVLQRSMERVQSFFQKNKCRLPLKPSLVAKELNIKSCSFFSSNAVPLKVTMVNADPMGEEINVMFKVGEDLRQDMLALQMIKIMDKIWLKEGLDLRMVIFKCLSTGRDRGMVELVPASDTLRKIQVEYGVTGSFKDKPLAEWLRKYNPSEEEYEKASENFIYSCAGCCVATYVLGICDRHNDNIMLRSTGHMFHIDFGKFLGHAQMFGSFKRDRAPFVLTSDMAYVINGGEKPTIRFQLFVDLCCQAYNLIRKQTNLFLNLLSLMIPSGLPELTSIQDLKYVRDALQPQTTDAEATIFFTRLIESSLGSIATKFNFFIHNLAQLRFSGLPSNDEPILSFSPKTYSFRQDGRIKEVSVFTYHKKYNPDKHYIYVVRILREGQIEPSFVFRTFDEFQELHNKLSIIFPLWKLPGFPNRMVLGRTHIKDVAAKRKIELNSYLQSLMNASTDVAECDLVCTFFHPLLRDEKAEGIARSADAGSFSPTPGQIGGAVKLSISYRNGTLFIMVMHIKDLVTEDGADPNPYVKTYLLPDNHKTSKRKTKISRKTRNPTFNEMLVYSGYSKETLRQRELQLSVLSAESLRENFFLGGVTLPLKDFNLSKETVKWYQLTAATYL

By IC50 is commonly meant the point on the concentration scale where inhibition reaches its midpoint. Low values mean inhibition by little substance, high ones a need for much substance. As for `CC(C)CCn1c(SCC(=O)Nc2ccccc2C(F)(F)F)nc2nccnc2c1=O` [compound 4], the 50% inhibitory concentration (IC50) stood at 2600 nM.
